These results are taken from patent US20230339886A1 (University of Florida Research Foundation, Incorporated, priority 2020, published 2023).

Molecules are shown by their SMILES.

In the first assay the target is T1, REV-ERBα LBD (human; residues 281-614 Δ324-422) (Homo sapiens, UniProt P20393, DEL324-422).
T1 construct: 6×Histag-REV-ERBα LBD (human; residues 281-614 Δ324-422); made in house; host or cells: Escherichia coli
T1 sequence (P20393 with tags, fused parts or gaps DEL324-422): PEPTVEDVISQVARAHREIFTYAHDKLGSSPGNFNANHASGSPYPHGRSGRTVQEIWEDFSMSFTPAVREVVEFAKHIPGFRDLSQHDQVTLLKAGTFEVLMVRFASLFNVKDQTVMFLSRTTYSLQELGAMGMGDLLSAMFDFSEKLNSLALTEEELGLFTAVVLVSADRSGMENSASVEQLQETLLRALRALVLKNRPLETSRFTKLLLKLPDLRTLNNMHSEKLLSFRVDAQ
T1 sequence (Q9Y618 2335-2356 partner limits assumed): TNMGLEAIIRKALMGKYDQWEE
Kind of assay: TR-FRET corepressor interaction assay (REV-ERBα LBD, FITC-SMRT peptide). It is filed as biochemical. The settings on record: FITC-SMRT peptide, read-out: REVERBα agonism (EC50 class, FRET assay). In short, it runs like this: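 Compound serial dilutions (in DMSO, triplicate) incubated 2 h at 4 °C; Tb donor excited at 340 nm, emission read at 495 nm and FITC acceptor at 520 nm. TR-FRET ratio (520/495 nm) plotted against ligand concentration and fitted to a sigmoidal dose-response curve.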
A general note: In TR-FRET formats the signal depends on donor and acceptor labels being close together.
The term EC50 denotes the midpoint of the concentration-response curve. In the case of `C[C@H]1C[C@@H]1S(=O)(=O)N[C@@H](c1cn(CC(C)(C)C)c2cc(-c3ccccc3C(F)(F)F)ccc12)C(F)(F)F` [Example 514, (1S,2S)-2-methyl-N—((S)-2,2,2-trifluoro-1-(1-neopentyl-6-(2-(trifluoromethyl)phenyl)-1H-indol-3-yl)ethyl)cyclopropane-1-sulfonamide], the EC50 was less than 500 nM. Regarding `CC(C)(C)Cn1cc([C@H](NS(=O)(=O)C2CC2)C(=O)O)c2ccc(-c3ccccc3C(F)(F)F)cc21` [Example 431, (S)-2-(cyclopropanesulfonamido)-2-(1-neopentyl-6-(2-(trifluoromethyl)phenyl)-1H-indol-3-yl)acetic acid], the concentration giving a half-maximal response (EC50) is more than 3000 nM.

As for `CCOC(=O)[C@@H](NS(=O)(=O)C1CC1)c1cn(CC(C)(C)C)c2cc(-c3ccccc3C(F)(F)F)ccc12` [Example 430, ethyl (S)-2-(cyclopropanesulfonamido)-2-(1-neopentyl-6-(2-(trifluoromethyl)phenyl)-1H-indol-3-yl)acetate], the EC50 was more than 3000 nM.

As to `[2H]C(C)(NS(=O)(=O)C1CCC1)c1cn(CC(C)(C)C)c2cc(-c3ccccc3C(F)(F)F)ccc12` (stereo not shown) [Example 445, N-(1-(1-neopentyl-6-(2-(trifluoromethyl)phenyl)-1H-indol-3-yl)ethyl-1-d)cyclobutanesulfonamide], the EC50 is less than 500 nM.

The assay is the same for the next values; noted with them: Table 2, read-out: REVERBα agonism (EC50 class, FRET assay).
For the molecule `CC(C)Cn1cc(CNS(=O)(=O)N(C)C)c2ccc(-c3ccncc3)cc21` [Compound 239], the EC50 was less than 500 nM. The same measure, in the same setting: the value for `Cc1ccccc1-c1ccc2c(c1)c(CC(C)(C)C)cn2CCNS(=O)(=O)C1CC1` [Example 302, N-(2-(3-neopentyl-5-(o-tolyl)-1H-indol-1-yl)ethyl)cyclopropanesulfonamide] was less than 500 nM; that for `CC(C)c1ccc2c([C@H](NS(=O)(=O)C3CCC3)C(F)(F)F)cn(CC(C)(C)C)c2c1` [Example 415, (S)—N-(2,2,2-trifluoro-1-(6-isopropyl-1-neopentyl-1H-indol-3-yl)ethyl)cyclobutanesulfonamide] was 500 to 3000 nM; that for `CC(C)Cn1cc(CCNS(=O)(=O)N(C)C)c2ccc(OC(C)(C)C)cc21` [Example 119, N′-{2-[6-tert-butoxy-1-(2-methylpropyl)-1H-indol-3-yl]ethyl}-N,N-dimethylsulfuric diamide] was 500 to 3000 nM. The same measure, in the same setting: in the case of `CC(C)Cn1cc(C2CCCN(S(=O)(=O)N(C)C)C2)c2ccc(-c3ccccc3)cc21` (stereo not shown) [Example 61, 3-(1-isobutyl-6-phenyl-1H-indol-3-yl)-N,N-dimethylpiperidine-1-sulfonamide] it was 500 to 3000 nM. As to `CC(C)Cn1cc([C@H](NS(=O)(=O)C2CC2)C(F)(F)F)c2ccc(-c3ccc(F)cc3C(F)(F)F)cc21` [Example 324, (S)—N-(2,2,2-trifluoro-1-(6-(4-fluoro-2-(trifluoromethyl)phenyl)-1-isobutyl-1H-indol-3-yl)ethyl)cyclopropanesulfonamide], the EC50 was less than 500 nM. Take `CC(C)(C)Cn1cc([C@H](NS(=O)(=O)C2CC2)C(F)(F)F)c2cc(C(F)(F)F)c(-c3ccccc3C(F)(F)F)cc21` [Example 357, (S)—N-(2,2,2-trifluoro-1-(1-neopentyl-5-(trifluoromethyl)-6-(2-(trifluoromethyl)phenyl)-1H-indol-3-yl)ethyl)cyclopropanesulfonamide]: the EC50 lay in the range of 500 to 3000 nM. For the molecule `CC(C)Cn1cc(CCNS(=O)(=O)N(C)C)c2ccc(C3CCN(C(=O)OC(C)(C)C)CC3)cc21` [Compound 101, tert-butyl 4-(3-{2-[(dimethylsulfamoyl)amino]ethyl}-1-(2-methylpropyl)-1H-indol-6-yl)piperidine-1-carboxylate], the EC50 is 500 to 3000 nM. Turning to `CC(C)Cn1cc(CCNS(=O)(=O)N(C)C)c2ccc(Br)cc21` [Compound 97, ({2-[6-bromo-1-(2-methylpropyl)-1H-indol-3-yl]ethyl}sulfamoyl)dimethylamine], the EC50 is less than 500 nM.
